Reference: US20080305186A1, “Method and Composition for the Treatment of Cardiac Hypertrophy” (BOARD OF REGENTS, THE UNIVERSITY OF TEXAS SYSTEM, priority 2007, published 2008)

Test system: cardiac gene expression
Assay: Microarray analysis of cardiac gene expression (GeneChip Mouse Genome 430 2.0)
Format: in vivo, mice
Procedure: Microarray Sample Preparation and Analysis. Animal hearts were rapidly removed, and the atria and right ventricles were cut and immediately plunged into TRIzol Reagent (Life Technologies). Total RNA was isolated following the manufacturer's instructions, purified by phenol-chloroform extraction and then ethanol precipitation, and 20 μg further processed for microarray analysis. Briefly, cDNA synthesis, in vitro transcription, and labeling and fragmentation to produce the oligonucleotide probes were performed as instructed by the GeneChip manufacturer (Affymetrix). The probes were first hybridized to a test array (Affymetrix) and then to the GeneChip Mouse Genome 430 2.0 Array, using the GeneChip Hybridization Oven 640. The chips were washed in a GeneChip Fluidics Station 450 (Affymetrix), and the results were visualized with a GeneChip G7 scanner (Affymetrix). RMA normalization, pairwise comparisons, Student's t test and Benjamini and Hochberg correction were subsequently performed using GeneSifter (VizX Labs, Seattle, Wash.) and Spotfire DecisionSite 8.3 (Spotfire, Inc., Somerville, Mass.).
Effects on Gene Expression Profile. […] One mouse heart was used for each array, and was performed in triplicate, generating a total of 12 arrays. GeneSifter was used to perform RMA normalization, pairwise comparisons of averaged signal intensity values, and Student's t-test with Benjamini and Hochberg correction, and Spotfire was used to perform pairwise comparisons. […] Additionally, genes that were altered between any two N or cardiac hypertrophy samples were removed, as these alterations most likely represented normal variations between mice.

## C[C@H]1c2cccc(O)c2C(=O)C2=C(O)[C@]3(O)C(=O)C(C(N)=O)=C(O)[C@@H](N(C)C)[C@@H]3[C@@H](O)[C@@H]21 [doxycycline]
GenBank BM245060, vs mice given only isoproterenol
  FC EST: −2.3
GenBank BM245170, vs mice given only isoproterenol
  FC Fos-like antigen 2 (Fosl2): −2.6
GenBank BM246377, vs mice given only isoproterenol
  FC ESTs: −1.9
GenBank BM899392, vs mice given only isoproterenol
  FC Cytoglobin (Cygb): 1.8
GenBank BM936480, vs mice given only isoproterenol
  FC Flavin containing monooxygenase 2 (Fmo2): −2.7
GenBank BM945528, heart, drug + isoproterenol vs isoproterenol-only mice, CH vs normal FC 1.6
  FC Tripartite motif protein 24 (Trim24): −1.8 fold
GenBank BQ031006, vs mice given only isoproterenol
  FC Headcase homolog (Heca): −2.2
GenBank BQ174721, vs mice given only isoproterenol
  FC SERTA domain containing 4 (Sertad4): 2.0
GenBank BQ176399, vs mice given only isoproterenol
  FC EST: −1.6
GenBank BQ176610, vs mice given only isoproterenol
  FC Sema domain, seven thrombospondin repeats (type 1 and type 1-like), transmembrane domain (TM) and short cytoplasmic domain, (semaphorin) 5A (Sema5a): −3.9
GenBank C77858, heart, drug + isoproterenol vs isoproterenol-only mice, CH vs normal FC 2.1
  FC Transmembrane protein 38B (Tmem38b): −1.5 fold
GenBank C79823, vs mice given only isoproterenol
  FC Mitochondrial ribosomal protein L45 (Mrpl45): 2.4
GenBank D17444, vs mice given only isoproterenol
  FC Leukemia inhibitory factor receptor (Lifr): −2.0
GenBank D63902, heart, drug + isoproterenol vs isoproterenol-only mice, CH vs normal FC 1.7
  FC Tripartite motif protein 25 (Trim25): −2.1 fold
GenBank L20048, vs mice given only isoproterenol
  FC L20048: −1.9
GenBank M12481, vs mice given only isoproterenol
  FC Cytoplasmic beta-actin (Actb): 3.1
GenBank M30697, vs mice given only isoproterenol
  FC Multidrug resistae protein (MDR) (Acb1a): −2.6
GenBank NM_007434, heart, drug + isoproterenol vs isoproterenol-only mice, CH vs normal FC −1.8
  FC Thymoma viral proto-oogene 2 (Akt2): 1.7 fold
GenBank NM_007897, vs mice given only isoproterenol
  FC Early B-cell factor (Ebf1): 2.1
GenBank NM_007945, vs mice given only isoproterenol
  FC Epidermal growth factor receptor pathway substrate 8 (Eps8): −1.8
GenBank NM_007987, heart, drug + isoproterenol vs isoproterenol-only mice, CH vs normal FC 2.8
  FC Tumor necrosis factor receptor superfamily, member 6 (Tnfrsf6) (Fas): −2.4 fold
GenBank NM_008129, vs mice given only isoproterenol
  FC Glutamate-cysteine ligase, modifier subunit (Gclm): −1.8
GenBank NM_008416, vs mice given only isoproterenol
  FC Jun-B oogene (Junb): −2.0
GenBank NM_008419, vs mice given only isoproterenol
  FC Potassium voltage-gated channel, shaker-related subfamily, member 5 (Kcna5): −2.4
GenBank NM_008808, vs mice given only isoproterenol
  FC NM_008808: 1.7
GenBank NM_008880, vs mice given only isoproterenol
  FC Pphospholipid scramblase 2 (Plscr2): −1.8
GenBank NM_009114, vs mice given only isoproterenol
  FC S100 calcium binding protein A9 (calgranulin B) (S100a9): −14.0
GenBank NM_009446, heart, drug + isoproterenol vs isoproterenol-only mice, CH vs normal FC −1.9
  FC Tubulin, alpha 3 (Tuba3): 1.9 fold
GenBank NM_009447 (first entry, r874), heart, drug + isoproterenol vs isoproterenol-only mice, CH vs normal FC −4.3
  FC Tubulin, alpha 4 (Tuba4): 4.7 fold
GenBank NM_009447 (second entry, r876), heart, drug + isoproterenol vs isoproterenol-only mice, CH vs normal FC −6.2
  FC Tubulin, alpha 4 (Tuba4): 5.8 fold
GenBank NM_010286, vs mice given only isoproterenol
  FC Glucocorticoid-induced leucine zipper (Gilz) (Dsip1): −2.5
GenBank NM_010741, vs mice given only isoproterenol
  FC Lymphocyte antigen 6 complex, locus C (Ly6c): −2.1
GenBank NM_010809, vs mice given only isoproterenol
  FC Matrix metalloproteinase 3 (Mmp3): −2.9
GenBank NM_010929, vs mice given only isoproterenol
  FC Notch gene homolog 4, (Drosophila) (Notch4): −2.2
GenBank NM_011172, vs mice given only isoproterenol
  FC Proline dehydrogenase (Prodh): −2.0
GenBank NM_011338, vs mice given only isoproterenol
  FC Small inducible cytokine A9 (Scya9) (Ccl9) (Mip-1[…]): −2.1
GenBank NM_013562, vs mice given only isoproterenol
  FC Interferon-related developmental regulator 1 (Ifrd1): −1.6
GenBank NM_013594, vs mice given only isoproterenol
  FC Methyl-CpG binding domain protein 1 (Mbd1): −2.6
GenBank NM_013602, vs mice given only isoproterenol
  FC Metallothionein 1 (Mt1): −2.4
GenBank NM_013650, vs mice given only isoproterenol
  FC S100 calcium binding protein A8 (calgranulin A) (S100a8): −19.9
GenBank NM_016693, vs mice given only isoproterenol
  FC Mitogen-activated protein kinase kinase kinase 6 (Map3k6): −3.2
GenBank NM_017379, heart, drug + isoproterenol vs isoproterenol-only mice, CH vs normal FC −3.3
  FC Tubulin, alpha 8 (Tuba8): 3.1 fold
GenBank NM_018866, vs mice given only isoproterenol
  FC Small inducible cytokine subfamily B (Cys-X-Cys), member 13 (Scyb13) (Cxcl13): −4.4
GenBank NM_019662, vs mice given only isoproterenol
  FC Ras-related associated with diabetes (Rrad): 2.4
GenBank NM_019798, vs mice given only isoproterenol
  FC Phosphodiesterase 4A, cAMP specific (Pde4a): 1.8
GenBank NM_021297, heart, drug + isoproterenol vs isoproterenol-only mice, CH vs normal FC 3.2
  FC Toll-like receptor 4 (TLR4): −2.6 fold
GenBank NM_021398, vs mice given only isoproterenol
  FC Solute carrier family 43, member 3 (Slc43a3): −2.0
GenBank NM_021484, heart, drug + isoproterenol vs isoproterenol-only mice, CH vs normal FC 4.8
  FC Titin immunoglobulin domain protein (Myotilin, Myot): −3.0 fold
GenBank NM_021566, vs mice given only isoproterenol
  FC Jutophilin 2 (Jph2): 2.1
GenBank NM_021897, heart, drug + isoproterenol vs isoproterenol-only mice, CH vs normal FC 4.8
  FC Transformation related protein 53 inducible nuclear protein 1 (Trp53inp1): −3.5 fold
GenBank NM_022331, vs mice given only isoproterenol
  FC Homocysteine-inducible, endoplasmic reticulum stress-inducible, ubiquitin-like domain member 1 (Herpud1): −3.0
GenBank NM_023462, vs mice given only isoproterenol
  FC Retinol binding protein 7, cellular (Rbp7): −1.6
GenBank NM_023719, heart, drug + isoproterenol vs isoproterenol-only mice, CH vs normal FC 1.8
  FC Thioredoxin interacting protein (Txnip): −3.5 fold
GenBank NM_026346, vs mice given only isoproterenol
  FC F-box only protein 32 (Fbxo32): −4.7
GenBank NM_026835, vs mice given only isoproterenol
  FC Membrane-spanning 4-domains, subfamily A, member 6d (Ms4a6d): −2.2
GenBank NM_027209, vs mice given only isoproterenol
  FC Membrane-spanning 4-domains, subfamily A, member 6B (Ms4a6b): −1.7
GenBank NM_029796, vs mice given only isoproterenol
  FC Leucine-rich alpha-2-glycoprotein (Lrg-pending): −2.9
GenBank NM_030614, vs mice given only isoproterenol
  FC Fibroblast growth factor 16 (Fgf16): 2.8
GenBank NM_053085, heart, drug + isoproterenol vs isoproterenol-only mice, CH vs normal FC 3.5
  FC Transcription factor 23 (Tcf23): −2.3 fold
GenBank NM_054037, vs mice given only isoproterenol
  FC Secretoglobin, family 3A, member 1 (Scgb3a1): −2.2
